Common to all, as to experiment: DTP human tumour cell line panel, 48 h
Test [1] concerns SF-295 CNS.
Test [2] concerns CCRF-CEM leukemia.
Test [3] has as its system HCT-15 colon.
The test system of test [4] is NCI-H522 lung.
The test system of test [5] is NCI-H226 lung.
Test [6] concerns SN12C renal.
Test [7] relates to HCT-116 colon.
The test system of test [8] is M14 melanoma.
Test [9] concerns BT-549 breast.
Test [10] concerns RPMI-8226 leukemia.

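Tested at 5 concentrations; 48 h exposure; 96-well plates; endpoints linearly interpolated, else capped at highest concentration. GI50 marks 50% less growth. At the TGI there is no net growth.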

One may read the GI50 as the concentration that inhibits growth by half. The TGI is the concentration at which net growth stops. The low end stands for greater sensitivity of the cells, the high end for lower sensitivity of the cells. With `COC[C@@H](N=C1NC(=O)/C(=C/c2ccc3ncccc3c2)S1)c1ccccc1`, the GI50 in test [1] was 8.71 µM; in test [2], 6.8 µM; in test [3] it was 7.01 µM; in [4] it was 7.7 µM; in test [5], 6.88 µM; in [6], 8.52 µM. Also, the GI50 is 8.73 µM in test [7], 13 µM in test [8], 7.85 µM in test [9] and 6.13 µM in test [10]. Further, the TGI was above 25 µM in [1]; above 22 µM in test [2]; above 25 µM in test [3]; above 23.3 µM in [4]; above 25 µM in test [5]; above 25 µM in [6]. For the same molecule, the concentration for total growth inhibition (TGI) in test [7] was above 25 µM; in [8] it was above 25 µM; in test [9] it was above 25 µM; in test [10], 20.7 µM.

`CC(C)(C)c1ccc(S(=O)(=O)Oc2ccc3c4c(c(=O)oc3c2)CCCCC4)cc1`: the GI50 was 20.9 µM in test [1]; above 100 µM in test [2]; 7.92 µM in test [3]; 19.2 µM in test [4]; 9.94 µM in [5]; 29.3 µM in [6]. Further, the GI50 was 7.06 µM in test [7], 20.4 µM in [8], 17.7 µM in test [9] and 3.18 µM in [10]. The concentration for total growth inhibition (TGI) in test [1], in test [2], in test [3], in test [4], in [5] and in test [6] was above 100 µM each time. Also, the TGI in test [7], in test [8], in [9] and in test [10] was above 100 µM each time.

For the molecule `COc1cc(C2Cc3ncccc3-c3[nH]c(=O)c4cccnc4c32)cc(OC)c1OC` (centres undefined), the GI50 in test [1] was 0.274 µM; in test [2], 0.467 µM; in test [3], 0.809 µM; in test [4], 0.204 µM; in test [5], above 74.7 µM; in test [6], 1.19 µM. For the same molecule, the GI50 in [7] was 0.456 µM; in test [8], 0.405 µM; in test [9], 0.633 µM; in test [10], 0.68 µM. Moreover, the TGI in test [1] was above 100 µM; in test [2], above 100 µM; in test [3], above 100 µM; in [4] it was 0.635 µM; in [5], above 100 µM; in test [6] it was above 100 µM. For the same molecule, the TGI in test [7] was above 100 µM; in test [8], above 100 µM; in test [9], 66.6 µM; in test [10], above 100 µM.

For `COc1ccc(/C=C(/C#N)C(N)=O)c(OC)c1`, the TGI in test [1], in test [2], in test [3], in test [4], in test [5] and in test [6] was above 100 µM each time. Also, the TGI in test [7], in [8], in test [9] and in [10] was above 100 µM in each case.

On to `CCOC(=O)c1cc(C(=O)c2cc(OC)c(OC)c(OC)c2)n2ncccc12`, for which the concentration for 50% growth inhibition (GI50) is 0.219 µM in [1]; 0.297 µM in [2]; 0.251 µM in [3]; 0.29 µM in test [4]; 28.2 µM in [5]; 0.821 µM in test [6]. In addition, the concentration for 50% growth inhibition (GI50) is 0.276 µM in test [7], 0.229 µM in test [8], 0.761 µM in test [9] and 0.316 µM in [10]. The TGI is 13.9 µM in test [1]; above 100 µM in test [2]; above 100 µM in test [3]; above 21.7 µM in test [4]; above 100 µM in [5]; above 100 µM in test [6]. Moreover, the TGI in [7], in test [8] and in [9] was above 100 µM in each case.

`CCCCCCCCCCCCOC1C(CNC(=O)C2OC3OC(C)(C)OC3C2NC(=O)Nc2ccc(CC(=O)OC)cc2)OC2OC(C)(C)OC21` (centres undefined): the GI50 was above 34.8 µM in test [1]; above 19.6 µM in [2]; above 100 µM in [3]; above 100 µM in test [4]; above 100 µM in test [5]; above 100 µM in test [6]. Moreover, the GI50 is 12.5 µM in [7], 22.7 µM in test [8], above 100 µM in [9] and above 100 µM in test [10]. In addition, the TGI in [1] was above 49.5 µM; in test [2], above 100 µM; in test [3], above 100 µM; in test [4] it was above 100 µM; in test [5], above 100 µM; in test [6], above 100 µM. Further, the TGI in test [7], in test [8], in test [9] and in [10] was above 100 µM each time.

In the case of `CC(C)C1=CC(=O)C(C)(C2C(O)CC3(C)C4CC=C5C(CCC(OC6OC(CO)C(O)C(O)C6OC6OC(C)C(O)C(O)C6O)C5(C)C)C4(C)C(=O)CC23C)O1` (centres undefined), the TGI in [1], in test [2], in test [3], in [4], in test [5] and in test [6] was above 100 µM each time. For the same molecule, the TGI in test [7], in [8], in test [9] and in test [10] was above 100 µM throughout.

For `CC(C)c1[nH]nc(C(N)=O)c1N=NN(C)C`, the TGI is above 100 µM in test [1]; above 100 µM in test [2]; above 100 µM in [3]; 67.8 µM in test [4]; 71.6 µM in test [5]; above 100 µM in test [6]. Besides, the total growth inhibition concentration (TGI) in [7], in test [8], in [9] and in test [10] was above 100 µM each time.

As to `COc1ccc(/C=C/C(=O)c2cc(OC)c(OC)c(OC)c2)cc1OCC(=O)Nc1nc2ccc(OC(F)(F)F)cc2s1`, the GI50 in test [1] was 2.21 µM; in [2], 2.5 µM; in [3] it was 0.407 µM; in test [4], 0.671 µM; in test [5], 3.35 µM; in [6] it was 1.74 µM. Also, the GI50 in test [7] was 1.43 µM; in test [8], 1.72 µM; in test [9] it was 2.71 µM; in test [10], 2.02 µM. Further, the concentration for total growth inhibition (TGI) is 6.09 µM in test [1]; above 100 µM in [2]; 10.9 µM in [3]; 3.36 µM in test [4]; 32.1 µM in test [5]; 4.67 µM in test [6]. Besides, the concentration for total growth inhibition (TGI) is 3.15 µM in [7], 4.52 µM in test [8], 29.6 µM in test [9] and above 100 µM in test [10].

The record behind these values is PubChem BioAssay (NCI).
